# Source: paper PMC6982053, “GABAA Receptor Ligands Often Interact with Binding Sites in the Transmembrane Domain and in the Extracellular Domain—Can the Promiscuity Code Be Cracked?” (International Journal of Molecular Sciences, 2020)
# Target: T1, GABAA receptor α1β1 (β1 subunit) (Rattus norvegicus, UniProt P15431+P62813)
# T1 construct: gene Gabrb1; rat α1β1 expressed in Xenopus laevis oocytes; with GABAA receptor α1 subunit
# Test: two-electrode voltage clamp, modulation of GABA EC3-5 current (low efficacy)
# Assay type: cell-based
# T1 sequence (P15431 26-474): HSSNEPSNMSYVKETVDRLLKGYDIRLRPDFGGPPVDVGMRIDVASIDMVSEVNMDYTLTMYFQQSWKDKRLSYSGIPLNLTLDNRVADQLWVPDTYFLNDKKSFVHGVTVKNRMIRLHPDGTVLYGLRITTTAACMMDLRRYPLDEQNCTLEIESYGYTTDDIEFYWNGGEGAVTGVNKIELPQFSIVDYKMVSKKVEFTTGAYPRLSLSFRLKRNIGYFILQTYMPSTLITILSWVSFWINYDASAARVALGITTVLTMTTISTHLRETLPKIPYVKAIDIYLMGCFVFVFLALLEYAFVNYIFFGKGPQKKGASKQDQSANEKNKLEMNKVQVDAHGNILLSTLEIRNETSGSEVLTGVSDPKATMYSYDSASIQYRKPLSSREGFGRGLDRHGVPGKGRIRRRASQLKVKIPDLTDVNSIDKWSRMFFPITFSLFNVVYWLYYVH
# T1 sequence (P62813 28-455): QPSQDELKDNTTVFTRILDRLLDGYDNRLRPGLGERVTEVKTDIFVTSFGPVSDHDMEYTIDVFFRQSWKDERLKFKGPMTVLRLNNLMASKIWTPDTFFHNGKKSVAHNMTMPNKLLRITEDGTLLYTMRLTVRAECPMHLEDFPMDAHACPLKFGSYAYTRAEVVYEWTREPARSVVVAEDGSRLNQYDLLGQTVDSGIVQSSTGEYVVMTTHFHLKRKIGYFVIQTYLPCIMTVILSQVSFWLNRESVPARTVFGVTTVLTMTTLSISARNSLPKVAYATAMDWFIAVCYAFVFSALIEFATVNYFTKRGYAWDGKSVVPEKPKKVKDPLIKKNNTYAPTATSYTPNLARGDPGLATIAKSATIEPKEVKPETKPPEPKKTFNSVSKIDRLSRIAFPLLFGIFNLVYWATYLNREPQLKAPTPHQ
smiles,measurement,value
"O=C(O)c1[nH]c2ccc(Cl)cc2c1/N=N/c1ccc(Br)cc1 [MTI163, (E)-3-((4-bromophenyl)diazenyl)-5-chloro-1H-indole-2-carboxylic Acid]",EC50,7.65 µM
